From patent US20110105748A1, “Novel beta-phenyl-alpha-oxysubstituted propionic derivatives: process for its preparation and their use in the preparation of pharmaceutically important compounds” (priority 2001, published 2011)

melting point: 74 to 76 °C
SMILES: CCOC(=O)[C@H](Cc1ccc(N)cc1)OCC [Example 6, (S)-Ethyl 2-ethoxy-3-(4-aminophenyl)propionate]
